From ChEMBL document CHEMBL1944514, “Fluorescence detection of single nucleotide polymorphisms using nucleic acid probe containing tricyclic base-linked acyclonucleoside” (Bioorg Med Chem Lett, 2012)
Calls of active or inactive are those of the source. The rule behind the calls is not given here.

What was measured:
Format in all cases: nucleic-acid assay
[1] = system: Nucleic Acid; test: Binding affinity to 3'-r(CUUCCAGUUACAUAGAGA)-5' RNA assessed as fluorescence quenching by spectrophotometry
[2] = system: Nucleic Acid; test: Binding affinity to 3'-r(CUUCCAGUUGCAUAGAGA)-5' RNA assessed as fluorescence quenching by spectrophotometry
[3] = system: Nucleic Acid; test: Binding affinity to 3'-r(CUUCCAGUUCCAUAGAGA)-5' RNA assessed as change in melting temperature by spectrophotometry
[4] = system: Nucleic Acid; test: Binding affinity to 3'-r(CUUCCAGUUUCAUAGAGA)-5' RNA assessed as fluorescence quenching by spectrophotometry
[5] = system: Nucleic Acid; test: Binding affinity to 3'-r(CUUCCAGUUCCAUAGAGA)-5' RNA assessed as fluorescence quenching by spectrophotometry
[6] = system: Nucleic Acid; test: Binding affinity to 3'-r(CUUCCAGUUUCAUAGAGA)-5' RNA assessed as change in melting temperature by spectrophotometry
[7] = system: Nucleic Acid; test: Binding affinity to 3'-r(CUUCCAGUUGCAUAGAGA)-5' RNA assessed as change in melting temperature by spectrophotometry
[8] = system: Nucleic Acid; test: Binding affinity to 3'-r(CUUCCAGUUACAUAGAGA)-5' RNA assessed as change in melting temperature by spectrophotometry

SMILES | Activity [1] | Activity [2] | ΔTm [3] | Activity [4] | Activity [5] | Activity [6] | ΔTm [7] | ΔTm [8] | Activity [3] | ΔTm [6] | Activity [7]
Cc1cn([C@H]2C[C@H](OP(=O)(O)OC[C@H]3O[C@@H](n4ccc(N)nc4=O)C[C@@H]3OP(=O)(O)OC[C@H]3O[C@@H](n4cnc5c(N)ncnc54)C[C@@H]3OP(=O)(O)OC[C@H]3O[C@@H](n4cnc5c(N)ncnc54)C[C@@H]3OP(=O)(O)OC[C@H]3O[C@@H](n4ccc(N)nc4=O)C[C@@H]3OP(=O)(O)OC[C@H](Cn3cnc4cc5c(N)nc(N)nc5nc43)OP(=O)(O)OC[C@H]3O[C@@H](n4cnc5c(=O)[nH]c(N)nc54)C[C@@H]3OP(=O)(O)CC[C@H]3O[C@@H](n4cc(C)c(=O)[nH]c4=O)C[C@@H]3OP(=O)(O)OC[C@H]3O[C@@H](n4cnc5c(N)ncnc54)C[C@@H]3OP(=O)(O)OC[C@H]3O[C@@H](n4cc(C)c(=O)[nH]c4=O)C[C@@H]3OP(=O)(O)OC[C@H]3O[C@@H](n4ccc(N)nc4=O)C[C@@H]3OP(=O)(O)OC[C@H]3O[C@@H](n4cc(C)c(=O)[nH]c4=O)C[C@@H]3OP(=O)(O)OC[C@H]3O[C@@H](n4ccc(N)nc4=O)C[C@@H]3OP(=O)(O)OC[C@H]3O[C@@H](n4cc(C)c(=O)[nH]c4=O)C[C@@H]3O)[C@@H](COP(=O)(O)O[C@H]3C[C@H](n4cnc5c(=O)[nH]c(N)nc54)O[C@@H]3COP(=O)(O)O[C@H]3C[C@H](n4cnc5c(=O)[nH]c(N)nc54)O[C@@H]3COP(=O)(O)O[C@H]3C[C@H](n4cnc5c(N)ncnc54)O[C@@H]3COP(=O)(O)O[C@H]3C[C@H](n4cnc5c(N)ncnc54)O[C@@H]3COP(=O)(O)O[C@H]3C[C@H](n4cnc5c(=O)[nH]c(N)nc54)O[C@@H]3CO)O2)c(=O)nc1N | Active | inactive | -3.2 °C | Active | Active | – | – | -3.9 °C | – | -1.1 °C | inactive
Cc1cn([C@H]2C[C@H](OP(=O)(O)OC[C@H]3O[C@@H](n4ccc(N)nc4=O)C[C@@H]3OP(=O)(O)OC[C@H]3O[C@@H](n4cnc5c(N)ncnc54)C[C@@H]3OP(=O)(O)OC[C@H]3O[C@@H](n4cnc5c(N)ncnc54)C[C@@H]3OP(=O)(O)OC[C@H]3O[C@@H](n4cnc5c(N)ncnc54)C[C@@H]3OP(=O)(O)OC[C@H](Cn3cnc4cc5c(N)ncnc5nc43)OP(=O)(O)OC[C@H]3O[C@@H](n4cnc5c(=O)[nH]c(N)nc54)C[C@@H]3OP(=O)(O)CC[C@H]3O[C@@H](n4cc(C)c(=O)[nH]c4=O)C[C@@H]3OP(=O)(O)OC[C@H]3O[C@@H](n4cnc5c(N)ncnc54)C[C@@H]3OP(=O)(O)OC[C@H]3O[C@@H](n4cc(C)c(=O)[nH]c4=O)C[C@@H]3OP(=O)(O)OC[C@H]3O[C@@H](n4ccc(N)nc4=O)C[C@@H]3OP(=O)(O)OC[C@H]3O[C@@H](n4cc(C)c(=O)[nH]c4=O)C[C@@H]3OP(=O)(O)OC[C@H]3O[C@@H](n4ccc(N)nc4=O)C[C@@H]3OP(=O)(O)OC[C@H]3O[C@@H](n4cc(C)c(=O)[nH]c4=O)C[C@@H]3O)[C@@H](COP(=O)(O)O[C@H]3C[C@H](n4cnc5c(=O)[nH]c(N)nc54)O[C@@H]3COP(=O)(O)O[C@H]3C[C@H](n4cnc5c(=O)[nH]c(N)nc54)O[C@@H]3COP(=O)(O)O[C@H]3C[C@H](n4cnc5c(N)ncnc54)O[C@@H]3COP(=O)(O)O[C@H]3C[C@H](n4cnc5c(N)ncnc54)O[C@@H]3COP(=O)(O)O[C@H]3C[C@H](n4cnc5c(=O)[nH]c(N)nc54)O[C@@H]3CO)O2)c(=O)nc1N | Active | Active | – | inactive | Active | – | – | – | – | – | –
Cc1cn([C@H]2C[C@H](OP(=O)(O)OC[C@H]3O[C@@H](n4ccc(N)nc4=O)C[C@@H]3OP(=O)(O)OC[C@H]3O[C@@H](n4cnc5c(N)ncnc54)C[C@@H]3OP(=O)(O)OC[C@H]3O[C@@H](n4cnc5c(N)ncnc54)C[C@@H]3OP(=O)(O)OC[C@H](Cn3cnc4cc5c(N)ncnc5nc43)OP(=O)(O)OC[C@H]3O[C@@H](n4cc(C)c(=O)[nH]c4=O)C[C@@H]3OP(=O)(O)OC[C@H]3O[C@@H](n4cnc5c(=O)[nH]c(N)nc54)C[C@@H]3OP(=O)(O)CC[C@H]3O[C@@H](n4cc(C)c(=O)[nH]c4=O)C[C@@H]3OP(=O)(O)OC[C@H]3O[C@@H](n4cnc5c(N)ncnc54)C[C@@H]3OP(=O)(O)OC[C@H]3O[C@@H](n4cc(C)c(=O)[nH]c4=O)C[C@@H]3OP(=O)(O)OC[C@H]3O[C@@H](n4ccc(N)nc4=O)C[C@@H]3OP(=O)(O)OC[C@H]3O[C@@H](n4cc(C)c(=O)[nH]c4=O)C[C@@H]3OP(=O)(O)OC[C@H]3O[C@@H](n4ccc(N)nc4=O)C[C@@H]3OP(=O)(O)OC[C@H]3O[C@@H](n4cc(C)c(=O)[nH]c4=O)C[C@@H]3O)[C@@H](COP(=O)(O)O[C@H]3C[C@H](n4cnc5c(=O)[nH]c(N)nc54)O[C@@H]3COP(=O)(O)O[C@H]3C[C@H](n4cnc5c(=O)[nH]c(N)nc54)O[C@@H]3COP(=O)(O)O[C@H]3C[C@H](n4cnc5c(N)ncnc54)O[C@@H]3COP(=O)(O)O[C@H]3C[C@H](n4cnc5c(N)ncnc54)O[C@@H]3COP(=O)(O)O[C@H]3C[C@H](n4cnc5c(=O)[nH]c(N)nc54)O[C@@H]3CO)O2)c(=O)nc1N | inactive | inactive | – | Active | Active | – | – | – | – | – | –

Continued, values first:

Activity [1] | Activity [2] | ΔTm [3] | Activity [4] | Activity [5] | Activity [6] | ΔTm [7] | ΔTm [8] | Activity [3] | ΔTm [6] | Activity [7] | SMILES
Active | Active | -3.4 °C | inactive | Active | inactive | -2.9 °C | -3.5 °C | – | – | – | Cc1cn([C@H]2C[C@H](OP(=O)(O)OC[C@H]3O[C@@H](n4ccc(N)nc4=O)C[C@@H]3OP(=O)(O)OC[C@H]3O[C@@H](n4cnc5c(N)ncnc54)C[C@@H]3OP(=O)(O)OC[C@H]3O[C@@H](n4cnc5c(N)ncnc54)C[C@@H]3OP(=O)(O)OC[C@H](Cn3cnc4cc5c(N)nc(N)nc5nc43)OP(=O)(O)OC[C@H]3O[C@@H](n4cnc5c(N)ncnc54)C[C@@H]3OP(=O)(O)OC[C@H]3O[C@@H](n4cnc5c(=O)[nH]c(N)nc54)C[C@@H]3OP(=O)(O)CC[C@H]3O[C@@H](n4cc(C)c(=O)[nH]c4=O)C[C@@H]3OP(=O)(O)OC[C@H]3O[C@@H](n4cnc5c(N)ncnc54)C[C@@H]3OP(=O)(O)OC[C@H]3O[C@@H](n4cc(C)c(=O)[nH]c4=O)C[C@@H]3OP(=O)(O)OC[C@H]3O[C@@H](n4ccc(N)nc4=O)C[C@@H]3OP(=O)(O)OC[C@H]3O[C@@H](n4cc(C)c(=O)[nH]c4=O)C[C@@H]3OP(=O)(O)OC[C@H]3O[C@@H](n4ccc(N)nc4=O)C[C@@H]3OP(=O)(O)OC[C@H]3O[C@@H](n4cc(C)c(=O)[nH]c4=O)C[C@@H]3O)[C@@H](COP(=O)(O)O[C@H]3C[C@H](n4cnc5c(=O)[nH]c(N)nc54)O[C@@H]3COP(=O)(O)O[C@H]3C[C@H](n4cnc5c(=O)[nH]c(N)nc54)O[C@@H]3COP(=O)(O)O[C@H]3C[C@H](n4cnc5c(N)ncnc54)O[C@@H]3COP(=O)(O)O[C@H]3C[C@H](n4cnc5c(N)ncnc54)O[C@@H]3COP(=O)(O)O[C@H]3C[C@H](n4cnc5c(=O)[nH]c(N)nc54)O[C@@H]3CO)O2)c(=O)nc1N
Active | Active | – | Active | inactive | – | -4.3 °C | -5.9 °C | inactive | -4.6 °C | – | Cc1cn([C@H]2C[C@H](OP(=O)(O)OC[C@H]3O[C@@H](n4ccc(N)nc4=O)C[C@@H]3OP(=O)(O)OC[C@H]3O[C@@H](n4cnc5c(N)ncnc54)C[C@@H]3OP(=O)(O)OC[C@H]3O[C@@H](n4cnc5c(N)ncnc54)C[C@@H]3OP(=O)(O)OC[C@H](Cn3cnc4cc5c(N)nc(N)nc5nc43)OP(=O)(O)OC[C@H]3O[C@@H](n4cnc5c(=O)[nH]c(N)nc54)C[C@@H]3OP(=O)(O)OC[C@H]3O[C@@H](n4cnc5c(=O)[nH]c(N)nc54)C[C@@H]3OP(=O)(O)CC[C@H]3O[C@@H](n4cc(C)c(=O)[nH]c4=O)C[C@@H]3OP(=O)(O)OC[C@H]3O[C@@H](n4cnc5c(N)ncnc54)C[C@@H]3OP(=O)(O)OC[C@H]3O[C@@H](n4cc(C)c(=O)[nH]c4=O)C[C@@H]3OP(=O)(O)OC[C@H]3O[C@@H](n4ccc(N)nc4=O)C[C@@H]3OP(=O)(O)OC[C@H]3O[C@@H](n4cc(C)c(=O)[nH]c4=O)C[C@@H]3OP(=O)(O)OC[C@H]3O[C@@H](n4ccc(N)nc4=O)C[C@@H]3OP(=O)(O)OC[C@H]3O[C@@H](n4cc(C)c(=O)[nH]c4=O)C[C@@H]3O)[C@@H](COP(=O)(O)O[C@H]3C[C@H](n4cnc5c(=O)[nH]c(N)nc54)O[C@@H]3COP(=O)(O)O[C@H]3C[C@H](n4cnc5c(=O)[nH]c(N)nc54)O[C@@H]3COP(=O)(O)O[C@H]3C[C@H](n4cnc5c(N)ncnc54)O[C@@H]3COP(=O)(O)O[C@H]3C[C@H](n4cnc5c(N)ncnc54)O[C@@H]3COP(=O)(O)O[C@H]3C[C@H](n4cnc5c(=O)[nH]c(N)nc54)O[C@@H]3CO)O2)c(=O)nc1N
